Measurements from patent US20050250752A1, “Cembranoids with chemopreventive activity” (priority 2002, published 2005).

Tests used:
[1] = system: papillomas (mouse skin carcinogenesis induced by DMBA/TPA); test: Two-stage mouse skin carcinogenesis model induced by DMBA/TPA; format: in vivo, mouse (female ICR); details: topical 85 nm 1 hour before TPA, ICR mice
Method: In the two-stage mouse skin carcinogenesis model induced by DMBA/TPA, the animals (specific pathogen-free female ICR, 6 weeks old) were divided into 5 groups, 15 mice each. The back of each mouse was shaved with surgical clippers, and the mice were topically treated with DMBA (100 μg, 390 nmol) in acetone (0.1 ml) as an initiation treatment. For the positive control group, 1 week after initiation with DMBA, mice were promoted by the application with TPA (1 μg, 1.7 nmol) in acetone (0.1 ml) twice a week. The other four groups received a topical application of each of the sarcophine semi-synthetic derivatives (85 nm) 1 hour before application of the tumor promoter. The incidence of papillomas was observed weekly for 20 weeks. The percentage of mice bearing papillomas and the average number of papillomas per mouse were recorded.

[2] = system: Epstein-Barr virus early antigen (EBV-EA) of Raji cells induced by tumor promoter (TPA); test: Inhibition of EBV-EA activation induced by TPA in Raji cells; format: cell-based; details: for EBV-EA induction, percentage relative to the positive control value (100%): TPA 32 pmol, Raji cells, 48 h
Method: (§1) The inhibition of EBV-EA activation was assayed using Raji cells (virus non-producer type). The indicator cells (Raji, 1×10^6/ml) were incubated at 37° C. for 48 h in 1 ml of medium containing n-butyric acid (4 mmol), TPA(12-O-tetradecanoylphorbol 13-acetate)(32 pmol=20 ng in 2 μl DMSO) as inducer and various amounts of test compounds in 5 μl DMSO. Smears were made from the cell suspension, and the activated cells, which were stained by EBV-EA positive serum from nasopharygeal carcinoma patients were detected by an indirect immunofluorescence technique. For each compound, assays were performed in triplicate. The average EBV-EA induction of the test compounds was expressed as a relative ratio to the control experiment (100%), which was carried out only with n-butyric acid plus TPA. The viability of treated Raji cells was assayed by the Trypan Blue staining method.

Raji cells = test: Viability of treated Raji cells (Trypan Blue staining); format: cell-based
Method: as §1

[3] = x 1000 mol ratio/TPA (32 nmol/mL)

In the case of C/C1=C\CCC2(C)OC2CC/C(C)=C/C=C(/[C@@](C)(O)CO)CC1 (stereo partly drawn) [Compound 11, 7,8-Epoxy-1,3,11-cembratriene-15R(α),16-diol], the “Papilloma Bearer (%)” value ([1]; week 1 of promotion) is reported as 0.0%, the Papillomas/mouse ([1]; week 1 of promotion) is reported as 0.0 and the “Papilloma Bearer (%)” value ([1]; week 2 of promotion) is reported as 0.0%. For the same compound, the Papillomas/mouse ([1]; week 2 of promotion) was 0.0, the “Papilloma Bearer (%)” value ([1]; week 3 of promotion) was 0.0% and the Papillomas/mouse ([1]; week 3 of promotion) was 0.0. The “Papilloma Bearer (%)” value ([1]; week 4 of promotion) was 0.0%, the Papillomas/mouse ([1]; week 4 of promotion) was 0.0 and the “Papilloma Bearer (%)” value ([1]; week 5 of promotion) was 0.0%. The Papillomas/mouse ([1]; week 5 of promotion) was 0.0, the “Papilloma Bearer (%)” value ([1]; week 6 of promotion) was 0.0% and the Papillomas/mouse ([1]; week 6 of promotion) was 0.0. The “Papilloma Bearer (%)” value ([1]; week 7 of promotion) was 0.0%, the Papillomas/mouse ([1]; week 7 of promotion) was 0.0 and the “Papilloma Bearer (%)” value ([1]; week 8 of promotion) was 13.3%. For the same compound, the Papillomas/mouse ([1]; week 8 of promotion) was 0.6, the “Papilloma Bearer (%)” value ([1]; week 9 of promotion) was 20.0% and the Papillomas/mouse ([1]; week 9 of promotion) was 1.3. The “Papilloma Bearer (%)” value ([1]; week 10 of promotion) was 26.6%, the Papillomas/mouse ([1]; week 10 of promotion) was 1.6 and the “Papilloma Bearer (%)” value ([1]; week 11 of promotion) was 40.0%. The Papillomas/mouse ([1]; week 11 of promotion) was 1.9, the “Papilloma Bearer (%)” value ([1]; week 12 of promotion) was 46.6% and the Papillomas/mouse ([1]; week 12 of promotion) was 2.1. For the same compound, the “Papilloma Bearer (%)” value ([1]; week 13 of promotion) was 53.3%, the Papillomas/mouse ([1]; week 13 of promotion) was 2.4 and the “Papilloma Bearer (%)” value ([1]; week 14 of promotion) was 53.3%. The Papillomas/mouse ([1]; week 14 of promotion) was 2.7, the “Papilloma Bearer (%)” value ([1]; week 15 of promotion) was 60.0% and the Papillomas/mouse ([1]; week 15 of promotion) was 3.0. For the same compound, the “Papilloma Bearer (%)” value ([1]; week 16 of promotion) was 73.3%, the Papillomas/mouse ([1]; week 16 of promotion) was 3.4 and the “Papilloma Bearer (%)” value ([1]; week 17 of promotion) was 80.0%. For the same compound, the Papillomas/mouse ([1]; week 17 of promotion) was 3.7, the “Papilloma Bearer (%)” value ([1]; week 18 of promotion) was 80.0% and the Papillomas/mouse ([1]; week 18 of promotion) was 4.2. For the same compound, the “Papilloma Bearer (%)” value ([1]; week 19 of promotion) was 86.6%, the Papillomas/mouse ([1]; week 19 of promotion) was 4.7 and the “Papilloma Bearer (%)” value ([1]; week 20 of promotion) was 86.6%. It also gave a Papillomas/mouse ([1]; week 20 of promotion) of 5.1.
CC1=CC=C([C@@](C)(O)CO)C[C@@H](O)C(C)=CCCC2(C)OC2CC1 (stereo partly drawn) [Compound 13, 7,8-Epoxy-1,3,11-cembratriene-13R(α),15R(α),16-triol] was tested, and the “EBV-EA induction, percentage relative to the positive control value (100%)” value ([2]; x 10 mol ratio/TPA) was 92.6%, the “EBV-EA induction, percentage relative to the positive control value (100%)” value ([2]; x 100 mol ratio/TPA) was 72.9% and the “EBV-EA induction, percentage relative to the positive control value (100%)” value ([2]; x 500 mol ratio/TPA) was 54.2%. The “EBV-EA induction, percentage relative to the positive control value (100%)” value [2, 3] was 5.7%, the “viability percentage of Raji cells (indicator cells)” value (“viability percentage of Raji cells” for short) (Raji cells; x 10 mol ratio/TPA) was over 80% and the “viability percentage of Raji cells” value (Raji cells; x 100 mol ratio/TPA) was over 80%. For the same compound, the “viability percentage of Raji cells” value (Raji cells; x 500 mol ratio/TPA) was over 80% and the “viability percentage of Raji cells” value (Raji cells; [3]) was 60%.
For C/C1=C\C=C(\C(C)(O)CO)CC(=O)/C(C)=C/CCC2(C)OC2CC1 (stereo not drawn) [Compound 14, 7,8-Epoxy-13-oxo-1,3,11-cembratriene-15R(α),16-diol], the “EBV-EA induction, percentage relative to the positive control value (100%)” value ([2]; x 10 mol ratio/TPA) was 94.0%, the “EBV-EA induction, percentage relative to the positive control value (100%)” value ([2]; x 100 mol ratio/TPA) was 75.1% and the “EBV-EA induction, percentage relative to the positive control value (100%)” value ([2]; x 500 mol ratio/TPA) was 56.7%. For the same compound, the “EBV-EA induction, percentage relative to the positive control value (100%)” value [2, 3] was 8.3%, the “viability percentage of Raji cells” value (Raji cells; x 10 mol ratio/TPA) was over 80% and the “viability percentage of Raji cells” value (Raji cells; x 100 mol ratio/TPA) was over 80%. For the same compound, the “viability percentage of Raji cells” value (Raji cells; x 500 mol ratio/TPA) was over 80% and the “viability percentage of Raji cells” value (Raji cells; [3]) was 60%.
In the case of C/C1=C\C=C(\C(C)(O)CO)CC/C(C=O)=C/CCC2(C)OC2CC1 (stereo not drawn) [Compound 15, 7,8-Epoxy-1,3,11-cembratriene-15R(α),16-diol-20-carboxyaldehyde], the “EBV-EA induction, percentage relative to the positive control value (100%)” value ([2]; x 10 mol ratio/TPA) is reported as 90.6%, the “EBV-EA induction, percentage relative to the positive control value (100%)” value ([2]; x 100 mol ratio/TPA) is reported as 71.3% and the “EBV-EA induction, percentage relative to the positive control value (100%)” value ([2]; x 500 mol ratio/TPA) is reported as 52.4%. The “EBV-EA induction, percentage relative to the positive control value (100%)” value [2, 3] was 3.6%, the “viability percentage of Raji cells” value (Raji cells; x 10 mol ratio/TPA) was over 80% and the “viability percentage of Raji cells” value (Raji cells; x 100 mol ratio/TPA) was over 80%. For the same compound, the “viability percentage of Raji cells” value (Raji cells; x 500 mol ratio/TPA) was over 80% and the “viability percentage of Raji cells” value (Raji cells; [3]) was 60%.
For C/C1=C\C=C(\C(C)C)[C@@H](O)C/C(C)=C/CC/C(C)=C/CC1 [Sarcophytol-A, sarcophytol A, reference compound], the “inhibition of EBV-EA activation induced by TPA” value [2] was 88%, the “EBV-EA induction, percentage relative to the positive control value (100%)” value ([2]; x 10 mol ratio/TPA) was 97.3% and the “EBV-EA induction, percentage relative to the positive control value (100%)” value ([2]; x 100 mol ratio/TPA) was 79.1%. For the same compound, the “EBV-EA induction, percentage relative to the positive control value (100%)” value ([2]; x 500 mol ratio/TPA) was 60.4%, the “EBV-EA induction, percentage relative to the positive control value (100%)” value [2, 3] was 11.7% and the “viability percentage of Raji cells” value (Raji cells; x 10 mol ratio/TPA) was over 80%. The “viability percentage of Raji cells” value (Raji cells; x 100 mol ratio/TPA) was over 80%, the “viability percentage of Raji cells” value (Raji cells; x 500 mol ratio/TPA) was over 80% and the “viability percentage of Raji cells” value (Raji cells; [3]) was 50%.
